Where a name gives a salt, the structure may show the parent alone.
Key:
Sprague Dawley rats = experiment: Cardiovascular and behavioral effects: ECG changes during i.v. infusion in conscious rats; format: in vivo, rat; conditions: for D25 QT (dose required to produce a 25% increase in Q-T interval): indicates cardiac potassium channel blockade
Method: Preparative surgery is performed in Sprague Dawley rats weighing 200–300 gm and anaesthetized with 65 mg/kg (i.p.) pentobarbital. The femoral artery and vein are cannulated using polyethylene (PE)-10 tubing. Prior to surgery, this PE-10 tubing had been annealed to a wider gauge (PE-50) tubing for externalization. The cannulated PE-10/PE-50 tubing is passed through a trocar and exteriorised together with three (lead II) limb ECG leads (see below). The trocar is threaded under the skin of the back and out through a small incision at the mid-scapular region. A ground ECG electrode is inserted subcutaneously using a 20 gauge needle with the lead wire threaded through it. To place the other ECG electrodes, a small incision is made in the anterior chest region over the heart and ECG leads are inserted into the subcutaneous muscle layer in the region of the heart using a 20 guage needle. Other ECG leads are inserted into the subcutaneous muscle layer in the region near the base of the neck and shoulder (right side). The animal is returned to a clean recovery-cage with free access to food and water. The treatment and observational period for each animal commenced after a 24-hour recovery period.
A 15 min observational period is recorded followed by the intravenous infusion regime of the test compound at an initial dose of 2.0 μmol/kg/min (at 1 ml/hr). This rate is doubled every 5 minutes until one of the following effects is observed:
Blood pressure (BP), heart rate (HR) and ECG variables are continuously recorded while behavioral responses are also monitored and the total accumulative drug dose and drug infusion rate at which the response (such as convulsion, piloerection, ataxia, restlessness, compulsive chewing, lip-smacking, wet dog shake etc.) occurred are recorded.
Electrocardiograph (ECG) parameters: PR, QRS, QT1 (peak of T-wave), QT2 (midpoint of T-wave deflection) and hemodynamic parameters: BP and HR are analyzed using the automated analysis function in LabView (National Instruments) with a customized autoanalysis software (Nortran Pharmaceuticals). The infused dose producing 25% from control (D25) for all recorded ECG variables is determined.
Table 2 describes the results of the tests as D25 (micromol/kg) which are the doses required to produce a 25% increase in the ECG parameter measured (ne=not estimated). The increases in P-R interval and QRS interval indicate cardiac sodium channel blockade while the increase in Q-T interval indicates cardiac potassium channel blockade.

CD-1 mice = experiment: Assessment of pain blockage: pin prick, mouse tail; format: in vivo; conditions: injection into lateral tail vein with tourniquet
Method: CD-1 mice (20–30 g) are restrained in an appropriate holder. A tourniquet is placed at the base of the tail and a solution of the test compound (50 μl, 5 mg/ml) is injected into the lateral tail vein. The tourniquet is removed 10 min after the injection. Suitable dilutions of compound solution are used to obtain an ED50 for pain blockade at various times after injection. Pain responses are assessed by pin prick at regular intervals up to 4 hours post injection and the duration of pain blockage is recorded for three animals for each test compound solution. Compounds of the present invention may be evaluated according to the method described.

hH1 Na+ current = target: T1, hH1 Na+ current (Homo sapiens, UniProt Q14524); experiment: Patch-clamp inhibition of cloned ion channel current in transfected HEK cells: Na; format: cell-based; conditions: peak hH1 Na+ current, -100 mV to -30 mV
T1 construct: expressed in transfected cells; host or cells: HEK cells, transient transfection, vector pCDNA3
T1 sequence (Q14524 whole entry): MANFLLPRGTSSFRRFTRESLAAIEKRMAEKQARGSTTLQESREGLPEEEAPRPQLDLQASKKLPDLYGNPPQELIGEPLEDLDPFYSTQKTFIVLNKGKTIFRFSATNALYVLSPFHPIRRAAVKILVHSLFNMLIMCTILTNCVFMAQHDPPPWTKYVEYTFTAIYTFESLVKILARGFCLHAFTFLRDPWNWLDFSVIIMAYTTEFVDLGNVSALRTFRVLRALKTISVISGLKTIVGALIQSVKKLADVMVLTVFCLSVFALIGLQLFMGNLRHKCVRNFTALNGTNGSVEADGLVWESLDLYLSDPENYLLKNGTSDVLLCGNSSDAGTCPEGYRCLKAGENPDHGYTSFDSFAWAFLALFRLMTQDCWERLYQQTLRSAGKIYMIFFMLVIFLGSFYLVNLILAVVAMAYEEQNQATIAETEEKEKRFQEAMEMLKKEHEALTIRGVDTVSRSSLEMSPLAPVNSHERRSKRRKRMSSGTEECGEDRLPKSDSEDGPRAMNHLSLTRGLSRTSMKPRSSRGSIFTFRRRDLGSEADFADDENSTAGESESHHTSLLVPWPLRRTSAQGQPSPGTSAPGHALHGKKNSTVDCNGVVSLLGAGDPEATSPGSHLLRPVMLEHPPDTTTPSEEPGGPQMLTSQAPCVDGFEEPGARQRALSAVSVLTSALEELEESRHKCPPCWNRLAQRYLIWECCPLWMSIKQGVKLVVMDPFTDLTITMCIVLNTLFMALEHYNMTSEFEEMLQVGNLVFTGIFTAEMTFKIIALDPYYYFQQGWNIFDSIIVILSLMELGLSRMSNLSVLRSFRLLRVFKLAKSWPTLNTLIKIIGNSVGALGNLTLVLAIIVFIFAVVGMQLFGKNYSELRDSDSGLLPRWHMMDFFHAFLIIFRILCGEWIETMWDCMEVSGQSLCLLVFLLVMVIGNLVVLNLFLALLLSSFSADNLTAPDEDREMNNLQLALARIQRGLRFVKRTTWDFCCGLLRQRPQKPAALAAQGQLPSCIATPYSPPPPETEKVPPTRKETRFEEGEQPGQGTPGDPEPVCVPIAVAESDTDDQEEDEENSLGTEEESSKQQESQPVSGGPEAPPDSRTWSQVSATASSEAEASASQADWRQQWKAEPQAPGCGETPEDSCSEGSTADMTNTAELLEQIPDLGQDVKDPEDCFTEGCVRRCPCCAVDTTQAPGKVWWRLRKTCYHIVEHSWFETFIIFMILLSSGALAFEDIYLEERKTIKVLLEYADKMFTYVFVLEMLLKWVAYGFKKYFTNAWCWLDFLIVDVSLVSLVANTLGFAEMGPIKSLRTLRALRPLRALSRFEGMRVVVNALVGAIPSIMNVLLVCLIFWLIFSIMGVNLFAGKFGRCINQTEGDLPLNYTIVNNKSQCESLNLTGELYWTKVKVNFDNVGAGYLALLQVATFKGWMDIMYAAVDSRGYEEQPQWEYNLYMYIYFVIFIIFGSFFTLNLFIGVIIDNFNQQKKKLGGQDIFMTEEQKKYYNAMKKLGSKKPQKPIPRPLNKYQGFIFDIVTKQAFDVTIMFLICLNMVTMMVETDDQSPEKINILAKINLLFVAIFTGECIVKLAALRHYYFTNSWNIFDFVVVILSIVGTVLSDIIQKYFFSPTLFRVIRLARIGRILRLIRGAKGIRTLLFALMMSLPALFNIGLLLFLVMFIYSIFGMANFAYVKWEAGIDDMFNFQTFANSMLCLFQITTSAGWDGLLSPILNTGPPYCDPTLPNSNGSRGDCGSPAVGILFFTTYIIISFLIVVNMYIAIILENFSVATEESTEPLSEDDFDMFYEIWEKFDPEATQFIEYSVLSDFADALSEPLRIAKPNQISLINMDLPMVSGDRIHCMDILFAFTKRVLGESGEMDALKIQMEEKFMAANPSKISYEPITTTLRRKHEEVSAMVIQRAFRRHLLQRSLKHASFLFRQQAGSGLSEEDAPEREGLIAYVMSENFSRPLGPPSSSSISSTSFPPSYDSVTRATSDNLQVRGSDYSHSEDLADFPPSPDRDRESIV
Method: (§1) The relevant cloned ion channels (e.g. cardiac hH1, Kv1.4, Kv1.5, Kv4.2, Kv2.1, HERG etc.) are studied by transient transfection into HEK cells using the mammalian expression vector pCDNA3. Transfections for each channel type are carried out separately to allow individual study of the ion channel of interest. Cells expressing channel protein are detected by cotransfecting cells with the vector pHook-1 (Invitrogen, San Diego, Calif., USA). […] Equal concentrations of individual channel and pHook DNA are incubated with 10× concentration of lipofectAce in Modified Eagle's Medium (MEM, Canadian Life Technologies) and incubated with parent HEK cells plated on 25 mm culture dishes. After 3–4 hours the solution is replaced with a standard culture medium plus 20% fetal bovine serum and 1% antimycotic. Transfected cells are maintained at 37C in an air/5% CO2 incubator in 25 mm Petri dishes plated on glass coverslips for 24–48 hours to allow channel expression to occur. 20 min prior to experiments, cells are treated with beads coated with phOX. After 15 min, excess beads are […] off with cell culture medium and cells which had beads stuck to them are used for electrophysiological tests.
(§2) For whole-cell recording the control pipette filling solution contained (in mM): KCl, 130; EGTA, 5; MgCl2, 1; HEPES, 10; Na2ATP, 4; GTP, 0.1; and is adjusted to pH 7.2 with KOH. The control bath solution contained (in mM): NaCl, 135; KCI, 5; sodium acetate, 2.8; MgCl2, 1; HEPES, 10; CaCl2, 1; and is adjusted to pH 7.4 with NaOH. The test ion channel modulating compound is dissolved to 10 mM stock solutions in water and used at concentrations between 0.5 and 100 μM.
(§3) Coverslips containing cells are removed from the incubator before experiments and placed in a superfusion chamber (volume 250 μl) containing the control bath solution at 22C to 23C. All recordings are made via the variations of the patch-clamp technique, using an Axopatch 200A amplifier (Axon Instruments, CA). Patch electrodes are pulled from thin-walled borosilicate glass (World Precision Instruments; FL) on a horizontal micropipette puller, fire-polished, and filled with appropriate solutions. Electrodes had resistances of […] when filled with control filling solution. Analog capacity compensation is used in all whole cell measurements. In some experiments, leak subtraction is applied to data. Membrane potentials have not been corrected for any junctional potentials that arose between the pipette and bath solution. Data are filtered at 5 to 10 kHz before digitization and stored on a microcomputer for later analysis using the pClamp6 software (Axon Instruments, Foster City, Calif.). Due to the high level of expression of channel cDNA's in HEK cells, there is no need for signal averaging. The average cell capacitance is quite small, and the absence of ionic current at negative membrane potentials allowed faithful leak subtraction of data.
(§4) The concentration-response curves for changes in peak and steady-state current produced by the test compound are computer-fitted to the Hill equation: f=1−1/[1+([…])^n] [1]
(§5) where f is the fractional current (f=Idrug/Icontrol) at drug concentration [D]; IC50 is the concentration producing half-maximal inhibition and n is the Hill coefficient.
(§6) Compounds of the present invention may be evaluated by this method. […] Block is determined from the decrease in peak hH1 Na^+ current, or in steady-state Kv1.5 and integrated Kv4.2 current in the presence of drug. To record Na^+ current, cells are depolarized from the holding potential of −100 mV to a voltage of −30 mV for 10 ms to fully open and inactivate the channel. To record Kv1.5 and Kv4.2 current, cells are depolarized from the holding potential of −80 mV to a voltage of +60 mV for 200 ms to fully open the channel. Currents are recorded in the steady-state at a range of drug concentrations during stimulation every 4 s. […]

Kv1.5 = target: T2, Kv1.5 (Homo sapiens, UniProt P22460); experiment: Patch-clamp inhibition of cloned ion channel current in transfected HEK cells: Kv1.5; format: cell-based; conditions: steady-state current, -80 mV to +60 mV
T2 construct: expressed in transfected cells; host or cells: HEK cells, transient transfection, vector pCDNA3
T2 sequence (P22460 whole entry): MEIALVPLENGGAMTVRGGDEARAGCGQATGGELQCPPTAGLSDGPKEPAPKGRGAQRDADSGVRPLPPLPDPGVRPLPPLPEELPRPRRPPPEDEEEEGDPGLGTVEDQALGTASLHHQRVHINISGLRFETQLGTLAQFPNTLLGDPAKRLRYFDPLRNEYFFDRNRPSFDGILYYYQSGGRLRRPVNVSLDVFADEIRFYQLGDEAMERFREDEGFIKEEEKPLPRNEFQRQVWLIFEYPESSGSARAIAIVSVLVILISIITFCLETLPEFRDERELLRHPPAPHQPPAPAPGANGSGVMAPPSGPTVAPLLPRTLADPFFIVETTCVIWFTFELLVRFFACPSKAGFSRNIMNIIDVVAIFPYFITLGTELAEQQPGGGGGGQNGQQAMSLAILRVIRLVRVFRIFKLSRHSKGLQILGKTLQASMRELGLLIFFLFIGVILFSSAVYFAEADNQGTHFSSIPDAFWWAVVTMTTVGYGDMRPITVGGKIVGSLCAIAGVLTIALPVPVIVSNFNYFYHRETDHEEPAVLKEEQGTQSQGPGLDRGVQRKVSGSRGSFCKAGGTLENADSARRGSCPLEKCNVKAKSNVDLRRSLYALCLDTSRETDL
Method: as §1, §2, §3, §4, §5, §6

Kv4.2 = target: T3, Kv4.2 (Homo sapiens, UniProt Q9NZV8); experiment: Patch-clamp inhibition of cloned ion channel current in transfected HEK cells: Kv4.2; format: cell-based; conditions: integrated current, -80 mV to +60 mV
T3 construct: expressed in transfected cells; host or cells: HEK cells, transient transfection, vector pCDNA3
T3 sequence (Q9NZV8 1-630): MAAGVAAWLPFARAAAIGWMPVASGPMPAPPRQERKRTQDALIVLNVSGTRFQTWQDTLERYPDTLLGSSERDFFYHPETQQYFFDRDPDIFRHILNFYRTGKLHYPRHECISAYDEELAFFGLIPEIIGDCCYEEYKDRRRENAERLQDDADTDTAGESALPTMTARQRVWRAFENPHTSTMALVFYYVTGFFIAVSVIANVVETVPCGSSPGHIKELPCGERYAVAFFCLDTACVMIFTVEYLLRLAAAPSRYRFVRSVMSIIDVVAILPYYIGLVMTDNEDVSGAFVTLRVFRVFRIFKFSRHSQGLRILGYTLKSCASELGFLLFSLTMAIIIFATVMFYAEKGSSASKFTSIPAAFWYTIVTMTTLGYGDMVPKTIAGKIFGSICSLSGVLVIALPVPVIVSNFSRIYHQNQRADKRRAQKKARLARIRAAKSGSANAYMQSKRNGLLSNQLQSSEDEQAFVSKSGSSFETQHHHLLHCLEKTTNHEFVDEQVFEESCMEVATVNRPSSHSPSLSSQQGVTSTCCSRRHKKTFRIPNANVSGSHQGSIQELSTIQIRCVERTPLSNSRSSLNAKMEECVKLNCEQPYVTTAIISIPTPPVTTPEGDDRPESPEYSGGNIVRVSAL
Method: as §1, §2, §3, §4, §5, §6

HERG = target: T4, HERG (Homo sapiens, UniProt Q12809); experiment: Patch-clamp inhibition of cloned ion channel current in transfected HEK cells: HERG; format: cell-based; conditions: whole-cell patch clamp
T4 construct: expressed in transfected cells; host or cells: HEK cells, transient transfection, vector pCDNA3
T4 sequence (Q12809 whole entry): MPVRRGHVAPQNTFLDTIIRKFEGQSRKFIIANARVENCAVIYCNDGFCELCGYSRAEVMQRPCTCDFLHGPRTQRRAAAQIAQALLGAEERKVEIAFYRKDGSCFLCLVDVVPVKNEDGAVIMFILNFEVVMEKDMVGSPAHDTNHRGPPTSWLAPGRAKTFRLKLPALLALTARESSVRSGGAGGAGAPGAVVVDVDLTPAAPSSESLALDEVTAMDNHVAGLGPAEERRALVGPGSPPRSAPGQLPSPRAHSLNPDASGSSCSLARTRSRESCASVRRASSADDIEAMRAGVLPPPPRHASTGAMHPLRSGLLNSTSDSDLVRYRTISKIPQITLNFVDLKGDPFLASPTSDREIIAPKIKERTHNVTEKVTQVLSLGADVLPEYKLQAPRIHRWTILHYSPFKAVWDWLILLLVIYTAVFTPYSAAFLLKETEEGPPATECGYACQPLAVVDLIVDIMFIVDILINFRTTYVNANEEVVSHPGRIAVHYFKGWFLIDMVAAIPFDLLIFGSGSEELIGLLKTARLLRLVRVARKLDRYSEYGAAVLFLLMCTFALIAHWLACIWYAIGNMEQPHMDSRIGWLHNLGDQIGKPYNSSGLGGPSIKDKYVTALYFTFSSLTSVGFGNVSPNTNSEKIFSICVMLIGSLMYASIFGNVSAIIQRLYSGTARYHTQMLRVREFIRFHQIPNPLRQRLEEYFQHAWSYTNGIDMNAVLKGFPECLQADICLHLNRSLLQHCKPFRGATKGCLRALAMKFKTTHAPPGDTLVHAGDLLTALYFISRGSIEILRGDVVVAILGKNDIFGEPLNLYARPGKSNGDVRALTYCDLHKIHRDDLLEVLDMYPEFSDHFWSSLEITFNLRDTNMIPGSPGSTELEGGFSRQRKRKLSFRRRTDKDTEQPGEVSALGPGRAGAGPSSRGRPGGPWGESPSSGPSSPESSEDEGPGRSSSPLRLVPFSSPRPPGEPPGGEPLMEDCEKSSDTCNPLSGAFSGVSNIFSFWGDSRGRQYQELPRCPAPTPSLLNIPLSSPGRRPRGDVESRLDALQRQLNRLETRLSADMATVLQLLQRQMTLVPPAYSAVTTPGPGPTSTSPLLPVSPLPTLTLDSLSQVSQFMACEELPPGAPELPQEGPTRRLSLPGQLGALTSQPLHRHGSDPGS
Method: as §1, §2, §3, §4, §5, §6

Mongrel dogs = experiment: Canine vagal-AF model: termination of sustained atrial fibrillation; format: in vivo, dog; conditions: IV
Method: Mongrel dogs of either sex weighing 15-49 kg are anesthetized with morphine (2 mg/kg im initially, followed by 0.5 mg/kg IV every 2 h) and α-chloralose (120 mg/kg IV followed by an infusion of 29.25 mg/kg/h; St.-Georges et al., 1997). Dogs are ventilated mechanically with room air supplemented with oxygen via an endotracheal tube at 20 to 25 breaths/minute with a tidal volume obtained from a nomogram. […] Catheters are inserted into the femoral artery for blood pressure recording and blood gas measurement, and into both femoral veins for drug administration and venous sampling. Catheters are kept patent with heparinized 0.9% saline solution. Body temperature is maintained at 37-40° C. with a heating blanket. […] Drug effects to terminate sustained AF maintained during continuous vagal nerve stimulation are assessed. […] The vagal stimulation voltage is adjusted under control conditions, and then readjusted after each treatment to maintain the same bradycardic effect. […] Diastolic threshold current is determined at a basic cycle length of 300 ms by increasing the current 0.1 mA incrementally until stable capture is obtained. […] Atrial and ventricular ERP is measured with the extrastimulus method, over a range of S1S2 intervals at a basic cycle length of 300 ms. […] Diastolic threshold and ERP are determined in duplicate and averaged to give a single value. […]

[1] = indicates cardiac sodium channel blockade

| melting point | IC50 (hH1 Na+ current) | IC50 (Kv1.5) | IC50 (Kv4.2) | Structure (SMILES) | D25 QT (dose required to produce a 25% increase in Q-T interval) (Sprague Dawley rats) | D25 PR (dose required to produce a 25% increase in P-R interval) (Sprague Dawley rats; [1]) | D25 QRS (dose required to produce a 25% increase in QRS interval) (Sprague Dawley rats; [1]) | ED50 for pain blockade (CD-1 mice) | IC50 (HERG) | Median dose required for termination of AF (Mongrel dogs) | Mean dose required for termination of AF (Mongrel dogs; mean ±SEM) |
| --- | --- | --- | --- | --- | --- | --- | --- | --- | --- | --- | --- |
| < 193 °C | – | – | – | Cc1cn2cccc(OCCCc3ccc(Cl)cc3Cl)c2n1 (as salt: hydrochloride) [Compound 1, 8-[3-(2,4-DICHLOROPHENYL)PROPOXY]-2-METHYLIMIDAZO[1,2-α]PYRIDINEMONOHYDROCHLORIDE] | – | – | – | – | – | – | – |
| – | 8 µM | 300 nM | 2 µM | Cc1cn2cccc(OCCCc3ccc(Cl)cc3Cl)c2n1 [Compound 1, 8-[3-(2,4-DICHLOROPHENYL)PROPOXY]-2-METHYLIMIDAZO[1,2-α]PYRIDINEMONOHYDROCHLORIDE] | 8 µmol/kg | 14 µmol/kg | 12 µmol/kg | 0.073 mg/tail | 100 nM | – | – |
| – | 34 µM | 4000 nM | 7 µM | Cc1cn2cccc(OCCCc3ccccc3)c2n1 [Compound 2, 2-METHYL-8-[3-PHENYLPROPOXY]IMIDAZO[1,2-α]PYRIDINE MONOHYDROCHLORIDE] | 16 µmol/kg | 24 µmol/kg | – | – | 60 nM | – | – |
| – | – | – | – | O=C(NCC1CCCCN1)c1cc(OCC(F)(F)F)ccc1OCC(F)(F)F (centres unmarked) [Flecainide] | – | – | – | – | – | 2.5 µmol/kg | 4 ± 2 µmol/kg |

Source: US7105534B2, “Imidazo[1,2-α]pyridine ether compounds as ion channel modulators” (Cardiome Pharma Corp., priority 2000, dated 2006)
